{"source": "patent US20070207119A1", "about": "“Histone deacetylase inhibitor enhancement of trail-induced apoptosis” (University of South Florida, priority 2002, published 2007)", "key": {"[1]": {"test_system": "Jurkat cells", "test": "Apoptosis of Jurkat cells, annexin V staining and flow cytometry", "format": "cell-based, human", "procedure": "(§1) FIG. 2 LAQ824 induces accumulation in the G1 phase of the cell cycle and apoptosis. SKW 6.4 (A) and Jurkat (B) cells were treated with the indicated concentration of LAQ824 for 24 hours. Following this, the cell cycle status and the percentage of apoptotic cells were determined by flow cytometry. Values represent mean±SE of 3 experiments. FIG. 8 Treatment LAQ824 enhances Apo-2L/TRAIL induced DISC assembly, DISC activity and apoptosis. A. SKW 6.4 and B. Jurkat cells were treated with LAQ824 and/or Apo-2L/TRAIL at the indicated doses for 24 hours. Following this, the percentage of apoptotic cells was determined by annexin-V staining followed by flow cytometry. Values represent mean±SE of 3 experiments. C. Following treatment of Jurkat cells with LAQ824 (20 nM) and/or Apo-2L/TRAIL (10 ng/ml) for 24 hours, either the total cell lysates were utilized for immunoblot analyses of caspase-8, BID, caspase-3 and PARP, or the cytosolic (S100) fractions of cells were either used for immunoblot analysis of cytochrome (cyt) c, Omi or Smac (D), β-Actin expression was used as the loading control. E. SKW 6.4 cells were treated with 100 nM LAQ824 for 24 hours or 100 ng/ml Apo-2L/TRAIL for 2 hours, or LAQ824 followed by Apo-2L/TRAIL. […]"}, "[2]": {"test_system": "DR5 mRNA", "test": "Multi-probe RNase protection assay, DR5 mRNA", "format": "cell-based, human", "conditions": "SKW 6.4 and Jurkat cells, 100 nM LAQ824, 8 or 16 hours; densitometry, GAPDH mRNA as loading control", "procedure": "(§2) FIG. 6 Treatment with LAQ824 increases the mRNA expression of DR4 and DR5, and increases the association of the DR5 gene with the acetylated histone H3 and H4 in chromatin. A. After exposure of SKW 6.4 and Jurkat cells to 100 nM LAQ824 for the indicated time intervals (hours), mRNA expression levels of the indicated genes were determined using a Riboquant Multi-Probe RNase Protection Assay. B. Soluble chromatin was immunoprecipitated with anti-acetylated histone H3 and H4 antibodies. PCR primers for the DR5 promoter were used to amplify the DNA isolated from the immunoprecipitates. PCR products were scanned and quantified. […] The ratio between input DNA and precipitated DNA was calculated for each treatment.\n(§3) A RiboQuant Multi-Probe RNase Protection Assay System was used according to the manufacturer's instructions (BD/PharMingen, San Diego, Calif.), and as previously described. […] The remaining probes were resolved on 5% denaturing polyacrylamide gel and analyzed by autoradiography.\n(§4) Next, the effect of LAQ824 on the mRNA levels of c-FLIPL, DR5, DR4 and Apo-2L/TRAI, utilizing a multi-probe RNAse protection assay and estimated by densitometry with GAPDH mRNA as the loading control was determined. […] In contrast to the increase in the DR5 and DR4 mRNA levels, exposure to LAQ824 for eight hours inhibited the mRNA level of c-FLIPL by 75%, as determined by an RT-PCR assay (FIG. 7A). […]"}, "[3]": {"test_system": "FAS mRNA", "test": "Multi-probe RNase protection assay, FAS mRNA", "format": "cell-based, human", "conditions": "SKW 6.4 and Jurkat cells, 100 nM LAQ824, 8 or 16 hours; densitometry, GAPDH mRNA as loading control", "procedure": "as §2, §3, §4"}, "[4]": {"test_system": "SKW 6.4 cells", "test": "Apoptosis of SKW 6.4 cells, annexin V staining and flow cytometry", "format": "cell-based, human", "conditions": "10 to 200 nM LAQ824, 24 hours, less than in Jurkat", "procedure": "as §1"}, "[5]": {"test_system": "DR4 mRNA", "test": "Multi-probe RNase protection assay, DR4 mRNA", "format": "cell-based, human", "conditions": "only in SKW 6.4 cells, 100 nM LAQ824, 8 or 16 hours", "procedure": "as §2, §3, §4"}, "[6]": {"test_system": "DR5", "test": "Cell-membrane expression of DR5 in primary AML cells, anti-DR5 staining and flow cytometry", "format": "cell-based, human", "conditions": "primary AML sample, baseline 17.5%", "procedure": "FIG. 11 LAQ824 induces histone acetylation, increases DR4 and DR5 levels, as well as down regulates FLIPS and FLIPL in primary AML cells. A. AML cells were treated with LAQ824 at the indicated concentrations for 24 hours. Following this histone protein were isolated, and the Histone H3 acetylation was detected by Western blot analysis using the anti-acetylated Histone H3 antibody. Total cell lysates of the untreated and LAQ824 treated cells were also used for immunoblot analyses of DR5, DR4, FLIPL and FLIPS. β-actin was used as the loading control. B. Bone marrow mononuclear cells from a patient with AML were exposed to 100 or 250 nM of LAQ824 for 24 hours. Following this, cell-membrane expression of DR5 was determined by staining with anti-DR5 antibody and evaluated by flow cytometry. Flow cytometric histograms in panels a to d are from cells treated with: a. Isotype control, b. untreated control cells, c. 100 nM LAQ824 and d. 250 nM LAQ824.\nThe sensitivity of fresh AML cells procured from patients with relapsed AML to Apo-2L/TRAIL and/or LAQ824-induced apoptosis was next to be determined. […] In every sample evaluated, co-treatment with LAQ824 and Apo-2L/TRAIL induced more apoptosis than treatment with either agent alone. […] Based on the availability adequate sample, we also determined the effect of LAQ824 on the determinants of Apo-2L/TRAIL-induced DISC."}, "[7]": {"test_system": "HDAC activity in the HeLa cell nuclear extracts", "conditions": "LAQ824 5 to 250 nM, previously reported; cited from earlier work"}}}
{"smiles": "O=C(/C=C/c1ccc(CN(CCO)CCc2c[nH]c3ccccc23)cc1)NO", "note": "[LAQ824]", "values": [{"measurement": "apoptosis, % of Jurkat cells", "setting": "[1]; 100 or 200 nM LAQ824, 24 hours, data not shown", "result": "more than 90%"}, {"measurement": "induction of apoptosis (annexin V positive)", "setting": "[1]; Jurkat cells, 10 to 200 nM LAQ824, 24 hours, more than in SKW 6.4", "result": "induced apoptosis in a dose dependent manner"}, {"measurement": "increase of mRNA expression of DR5", "setting": "[2]", "result": 2.4, "unit": "fold"}, {"measurement": "increase of mRNA expression of FAS", "setting": "[3]", "result": 1.5, "unit": "fold"}, {"measurement": "induction of apoptosis (annexin V positive)", "setting": "[4]", "result": "induced apoptosis in a dose dependent manner"}, {"measurement": "increase of DR4 mRNA levels", "setting": "[5]", "result": 2.2, "unit": "fold"}, {"measurement": "DR5 expression on the cell membrane, % of cells", "setting": "[6]; 100 nM LAQ824, 24 hours", "result": 33.2, "unit": "%"}, {"measurement": "DR5 expression on the cell membrane, % of cells", "setting": "[6]; 250 nM LAQ824, 24 hours", "result": 62.4, "unit": "%"}, {"measurement": "in vitro HDAC activity", "setting": "[7]", "result": "inhibits the in vitro HDAC activity in a dose dependent manner"}]}
